{"source": "paper PMC3028607", "experiment": "SmI2-mediated 8-endo-trig ketyl-alkene radical cyclisation (C-C bond between ketone carbon and distal styrene carbon); SmI2 2.2 equiv, HMPA 18 equiv, t-BuOH 2 equiv; substrate added over 2 h, then 16 h", "settings": "THF, 15.0 mM, 22.0 °C"}
{"smiles": "COC(=O)[C@@H]1Cc2ccccc2CC(C)C2(O)CCCC[C@@H]12", "note": "(stereo partly shown)", "values": [{"measurement": "ring closure, isolated yield", "setting": "from C/C=C/c1ccccc1C[C@@H](C(=O)OC)[C@@H]1CCCCC1=O, 8-membered ring", "value": 11, "unit": "%"}]}
{"smiles": "COC(=O)C1Cc2ccccc2C(C)CC(C)(O)C1", "note": "(stereo not shown) [4 (to 9 40% + 10 38%)]", "values": [{"measurement": "ring closure, isolated yield", "setting": "from C=C(C)c1ccccc1CC(CC(C)=O)C(=O)OC, 8-membered ring", "value": 78, "unit": "%"}]}
{"smiles": "COC(=O)[C@@H]1Cc2ccccc2CCC2(O)CCCCC[C@@H]12", "note": "(stereo partly shown) [5a (to 6; 23% SM recovered)]", "values": [{"measurement": "ring closure, isolated yield", "setting": "from C=Cc1ccccc1C[C@@H](C(=O)OC)[C@@H]1CCCCCC1=O, 8-membered ring", "value": 42, "unit": "%"}]}
{"smiles": "COC(=O)[C@@H]1Cc2ccccc2CCC2(O)CCCCC[C@H]12", "note": "(stereo partly shown) [5b (no product; 62% SM recovered)]", "values": [{"measurement": "ring closure, isolated yield", "setting": "from C=Cc1ccccc1C[C@@H](C(=O)OC)[C@H]1CCCCCC1=O, 8-membered ring", "value": 0, "unit": "%"}]}
{"smiles": "COC(=O)[C@@H]1Cc2ccccc2C(C)CC2(O)CCCC[C@@H]12", "note": "(stereo partly shown) [7a (to 8)]", "values": [{"measurement": "ring closure, isolated yield", "setting": "from C=C(C)c1ccccc1C[C@@H](C(=O)OC)[C@@H]1CCCCC1=O, 8-membered ring", "value": 63, "unit": "%"}]}
{"smiles": "COC(=O)C1Cc2ccccc2C(C)CC(O)(C(C)C)C1", "note": "(stereo not shown) [11 (to 12 54% + 13 28%)]", "values": [{"measurement": "ring closure, isolated yield", "setting": "from C=C(C)c1ccccc1CC(CC(=O)C(C)C)C(=O)OC, 8-membered ring", "value": 82, "unit": "%"}]}
{"smiles": "COC(=O)C1Cc2ccccc2C(C)CC(O)(C(C)C)C1(C)C", "note": "(stereo not shown) [14 (only fragmentation 15, 58%)]", "values": [{"measurement": "ring closure, isolated yield", "setting": "from C=C(C)c1ccccc1CC(C(=O)OC)C(C)(C)C(=O)C(C)C, 8-membered ring", "value": 0, "unit": "%"}]}
{"smiles": "COC(=O)C1Cc2ccccc2C(c2ccccc2)CC(O)(C(C)C)C1", "note": "(stereo not shown) [16 (to 17a 37% + 17b 22%)]", "values": [{"measurement": "ring closure, isolated yield", "setting": "from C=C(c1ccccc1)c1ccccc1CC(CC(=O)C(C)C)C(=O)OC, 8-membered ring", "value": 59, "unit": "%"}]}
{"smiles": "COC(=O)C1Cc2ccccc2CC(C)C(C)(O)C1", "note": "(stereo not shown) [18 (to 19; 20% ketyl-aryl product 20)]", "values": [{"measurement": "ring closure, isolated yield", "setting": "from C/C=C/c1ccccc1CC(CC(C)=O)C(=O)OC, 8-membered ring", "value": 54, "unit": "%"}]}
{"smiles": "CCC1(O)CC(C(=O)OC)Cc2ccccc2CC1C", "note": "(stereo not shown) [21 (to 22; 6% fragmentation 23)]", "values": [{"measurement": "ring closure, isolated yield", "setting": "from C/C=C/c1ccccc1CC(CC(=O)CC)C(=O)OC, 8-membered ring", "value": 56, "unit": "%"}]}
{"smiles": "COC(=O)C1Cc2ccccc2CC(C)C(O)(C(C)C)C1", "note": "(stereo not shown) [24 (to 25)]", "values": [{"measurement": "ring closure, isolated yield", "setting": "from C/C=C/c1ccccc1CC(CC(=O)C(C)C)C(=O)OC, 8-membered ring", "value": 63, "unit": "%"}]}
{"smiles": "COC(=O)[C@@H]1Cc2ccccc2CC(C)C2(O)CCCC[C@H]12", "note": "(stereo partly shown) [26b (to lactone 29; 27% fragmentation 23; 40% SM)]", "values": [{"measurement": "ring closure, isolated yield", "setting": "from C/C=C/c1ccccc1C[C@@H](C(=O)OC)[C@H]1CCCCC1=O, 8-membered ring", "value": 9, "unit": "%"}]}
{"smiles": "COC(=O)C1Cc2ccccc2CC(C)C(O)(C(C)C)C1", "note": "(stereo not shown) [30 (to 31; 31% fragmentation 32; 32% SM)]", "values": [{"measurement": "ring closure, isolated yield", "setting": "from C/C=C\\c1ccccc1CC(CC(=O)C(C)C)C(=O)OC, 8-membered ring", "value": 8, "unit": "%"}]}
{"smiles": "COC(=O)C1Cc2ccccc2CC(C2CC2)C(O)(C(C)C)C1", "note": "(stereo not shown) [33 (to 34; 47% fragmentation 35)]", "values": [{"measurement": "ring closure, isolated yield", "setting": "from COC(=O)C(CC(=O)C(C)C)Cc1ccccc1/C=C/C1CC1, 8-membered ring", "value": 24, "unit": "%"}]}
{"smiles": "COC(=O)C1Cc2ccccc2CC(c2ccccc2)C(O)(C(C)C)C1", "note": "(stereo not shown) [36 (to 37; 20% SM)]", "values": [{"measurement": "ring closure, isolated yield", "setting": "from COC(=O)C(CC(=O)C(C)C)Cc1ccccc1/C=C/c1ccccc1, 8-membered ring", "value": 47, "unit": "%"}]}
{"smiles": "COC(=O)[C@@H]1Cc2ccccc2CC(c2ccccc2)C2(O)CCCC[C@@H]12", "note": "(stereo partly drawn) [38a (no 8-ring; 7-exo product 39, 44%)]", "values": [{"measurement": "ring closure, isolated yield", "setting": "from COC(=O)[C@H](Cc1ccccc1/C=C/c1ccccc1)[C@@H]1CCCCC1=O, 8-membered ring", "value": 0, "unit": "%"}]}
{"smiles": "COC(=O)[C@@H]1Cc2ccccc2CC(c2ccccc2)C2(O)CCCC[C@H]12", "note": "(stereo partly drawn) [38b (no 8-ring; 7-exo lactone 40, 63%)]", "values": [{"measurement": "ring closure, isolated yield", "setting": "from COC(=O)[C@H](Cc1ccccc1/C=C/c1ccccc1)[C@H]1CCCCC1=O, 8-membered ring", "value": 0, "unit": "%"}]}
{"smiles": "COC(=O)C1Cc2ccccc2CC(C)(C)C(C)(O)C1", "note": "(stereo not shown) [41 (no 8-ring; ketyl-aryl 42 14% + 43 7%)]", "values": [{"measurement": "ring closure, isolated yield", "setting": "from COC(=O)C(CC(C)=O)Cc1ccccc1C=C(C)C, 8-membered ring", "value": 0, "unit": "%"}]}
{"smiles": "COC(=O)C1Cc2ccccc2CC(C)C(O)(C(C)C)C1(C)C", "note": "(stereo not shown) [(E)-1-propenyl analogue of 14 (only fragmentation)]", "values": [{"measurement": "ring closure, isolated yield", "setting": "from C/C=C/c1ccccc1CC(C(=O)OC)C(C)(C)C(=O)C(C)C, 8-membered ring", "value": 0, "unit": "%"}]}
